These results are taken from patent US20050266014A1, “Tumor antigen based on products of the tumor suppressor gene WT1” (HARUO SUGIYAMA, priority 1998, published 2005).

A word on the Kd: it is the constant that tells how readily two partners part at equilibrium.

Read-outs that look alike come from different tables or passages of the source. No end group written: not given here.

One assay has as its target T1, D^b of MHC class I (Mus musculus, UniProt P01899).
T1 construct: the cell line (RMA-S) that expresses K^b and D^b molecules; endogenous in cells; host or cells: RMA-S cells
T1 sequence (P01899 25-362): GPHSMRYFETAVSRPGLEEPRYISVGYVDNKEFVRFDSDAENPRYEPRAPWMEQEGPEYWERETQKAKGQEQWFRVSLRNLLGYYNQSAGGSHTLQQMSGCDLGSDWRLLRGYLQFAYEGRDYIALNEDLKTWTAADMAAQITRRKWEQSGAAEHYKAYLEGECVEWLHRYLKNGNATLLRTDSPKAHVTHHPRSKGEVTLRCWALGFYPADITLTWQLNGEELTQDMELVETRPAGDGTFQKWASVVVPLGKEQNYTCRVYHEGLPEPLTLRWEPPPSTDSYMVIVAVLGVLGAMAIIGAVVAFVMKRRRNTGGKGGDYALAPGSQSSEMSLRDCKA
T1 sequence (P01887 21-119 partner): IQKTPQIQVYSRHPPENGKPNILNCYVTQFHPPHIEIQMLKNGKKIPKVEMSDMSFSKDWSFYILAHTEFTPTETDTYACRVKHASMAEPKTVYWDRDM
Briefly: Binding of peptides to D^b on RMA-S cells (fluorescent antibody staining, binding dissociation constant). On the procedure: Thus, RMA-S was cultured at 26° C. to effect high expression of MHC class I, and the cultured cells were incubated with the solutions of the test peptides at 37° C. for 1 hour. […] Then using fluorescently labeled monoclonal antibody that recognizes MHC class I (K^b, D^b), RMA-S cells were stained.

The next assay addresses T2, K^b of MHC class I (Mus musculus, UniProt P01901).
T2 construct: the cell line (RMA-S) that expresses K^b and D^b molecules; endogenous in cells; host or cells: RMA-S cells
T2 sequence (P01901 22-369): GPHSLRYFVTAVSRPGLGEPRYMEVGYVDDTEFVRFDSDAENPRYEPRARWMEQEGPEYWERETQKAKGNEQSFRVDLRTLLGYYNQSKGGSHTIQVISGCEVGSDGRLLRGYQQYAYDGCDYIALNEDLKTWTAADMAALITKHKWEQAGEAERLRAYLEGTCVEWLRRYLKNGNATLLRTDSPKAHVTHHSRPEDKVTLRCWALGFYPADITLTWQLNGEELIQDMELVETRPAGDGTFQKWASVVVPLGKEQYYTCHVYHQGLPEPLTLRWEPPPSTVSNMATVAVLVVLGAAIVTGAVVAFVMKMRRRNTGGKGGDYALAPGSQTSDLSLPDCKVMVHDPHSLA
T2 sequence (P01887 21-119 partner): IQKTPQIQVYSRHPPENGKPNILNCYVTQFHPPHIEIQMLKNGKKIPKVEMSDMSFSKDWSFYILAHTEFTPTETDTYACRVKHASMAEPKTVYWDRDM
Briefly: Binding of peptides to K^b on RMA-S cells (fluorescent antibody staining, binding dissociation constant). Conditions: peptide 37° C. 1 hour. On the procedure: (§1) Thus, RMA-S was cultured at 26° C. to effect high expression of MHC class I, and the cultured cells were incubated with the solutions of the test peptides at 37° C. for 1 hour. […] Then using fluorescently labeled monoclonal antibody that recognizes MHC class I (K^b, D^b), RMA-S cells were stained. Finally, the binding dissociation constant was calculated from the average amount of fluorescence per cell (Immunol. Lett., 47: 1, 1995).

The next assay deals with T3, HLA-A* 0201 (Homo sapiens, UniProt P04439, D140Y/D185E/D98H/E176V/E277Q/G131W/G231S/I119V/I121R/I166T/I218V/L300P/L318F/N151K/N90K/P208A/P217A/Q86G/Q94H/R138H/R169H/T345S).
T3 construct: T2 cells having the empty HLA-A* 0201 molecules; endogenous in cells; host or cells: T2 cells
Briefly: Binding of peptides to HLA-A* 0201 on T2 cells (FACS, binding dissociation constant). The conditions noted are these: 37° C. 1 hour.

A further assay relates to induced CTL. Nature of the assay: FACS analysis of surface markers of induced CTL, Example 3. It counts as cell-based. The conditions noted are these: human CTL, FIGS. 5 to 10. On the procedure: One week later, T2 cells that were irradiated after incubating for 1 hour with the peptide (20 μg/ml) were added to the above culture system for restimulation. From the following day, human IL-2 (final concentration 100 JRU/ml) was added to the culture.
Subsequently, after repeating, for five times, stimulation with the T2 cells that were irradiated after being pulsed with the peptide, a killing assay was performed using, as the target, the T2 cells pulsed with the peptide or the T2 cells not pulsed with the peptide. The surface markers of the induced CTL were subjected to FACS analysis.
A general note: In flow cytometry, cells or beads pass a laser one at a time.

The target of assay [1] is T4, D^b of mouse MHC class I, on RMA-S cells (mouse, UniProt P01887 21-119; P01899 25-362).
T4 construct: whole, on cells; Empty MHC class I on RMA-S cells cultured at 26 C; also called H-2D^b
T4 sequence (MHC heavy, looked up): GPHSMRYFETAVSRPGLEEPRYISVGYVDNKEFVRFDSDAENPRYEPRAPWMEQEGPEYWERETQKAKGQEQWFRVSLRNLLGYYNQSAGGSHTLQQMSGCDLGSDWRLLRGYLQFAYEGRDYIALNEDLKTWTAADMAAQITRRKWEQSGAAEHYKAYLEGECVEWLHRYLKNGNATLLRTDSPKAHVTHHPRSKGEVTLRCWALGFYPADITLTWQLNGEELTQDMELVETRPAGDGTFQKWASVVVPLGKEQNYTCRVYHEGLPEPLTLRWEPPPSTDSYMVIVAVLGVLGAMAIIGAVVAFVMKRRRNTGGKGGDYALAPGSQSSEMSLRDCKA
T4 sequence (b2m, looked up): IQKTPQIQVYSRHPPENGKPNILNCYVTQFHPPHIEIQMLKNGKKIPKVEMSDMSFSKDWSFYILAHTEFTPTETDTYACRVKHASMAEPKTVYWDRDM
Nature of the assay: MHC stabilisation on RMA-S cells, staining with fluorescent anti-MHC class I antibody, flow cytometry. On the procedure:
as §1

Assay [2] has as its target T5, K^b of mouse MHC class I, on RMA-S cells (mouse, UniProt P01887 21-119; P01901 22-369).
T5 construct: whole, on cells; Empty MHC class I on RMA-S cells cultured at 26 C; also called H-2K^b
T5 sequence (MHC heavy, looked up): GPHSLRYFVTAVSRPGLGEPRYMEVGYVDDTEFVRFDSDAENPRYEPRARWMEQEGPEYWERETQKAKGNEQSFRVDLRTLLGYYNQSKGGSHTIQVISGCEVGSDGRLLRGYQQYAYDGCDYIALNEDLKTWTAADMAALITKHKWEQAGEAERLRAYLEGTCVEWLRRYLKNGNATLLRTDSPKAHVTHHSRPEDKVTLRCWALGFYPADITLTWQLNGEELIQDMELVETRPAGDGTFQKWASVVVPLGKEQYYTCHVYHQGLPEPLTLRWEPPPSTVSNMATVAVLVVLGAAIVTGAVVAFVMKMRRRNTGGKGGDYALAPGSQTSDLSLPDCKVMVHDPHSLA
T5 sequence (b2m, looked up): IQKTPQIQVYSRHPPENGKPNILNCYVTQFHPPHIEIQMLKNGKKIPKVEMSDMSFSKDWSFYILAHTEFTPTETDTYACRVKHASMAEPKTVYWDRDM
The assay is described as above. On the procedure: as §1

The target of another assay is T6, HLA-A* 0201, on T2 cells (human).
T6 construct: whole, on cells; Empty HLA-A*0201 molecules on T2 cells; also called HLA-A2.1; A* 0201 of human HLA
Nature of the assay: peptide binding to empty HLA-A*0201 on T2 cells, staining with fluorescent anti-HLA-A2.1 antibody, FACS. On the procedure:
The above peptides and T2 cells having the empty HLA-A* 0201 molecules (J. Immunol., 150: 1763, 1993; Blood, 88: 2450, 1996) were incubated at 37° C. for 1 hour, and then the T2 cells were stained with fluorescently labeled monoclonal antibody that recognizes HLA-A2.1 to calculate the binding dissociation constant based on the average amount of fluorescence per cell in the FACS analysis.

Setting [3] is: RMA-S cells, peptide 37° C. 1 hour, read-out: binding dissociation constant (Kd value) with D^b (converted).

Take `CSCC[C@H](NC(=O)[C@@H](N)CCCNC(=N)N)C(=O)N[C@@H](Cc1ccccc1)C(=O)N1CCC[C@H]1C(=O)N[C@@H](CC(N)=O)C(=O)N[C@@H](C)C(=O)N1CCC[C@H]1C(=O)N[C@@H](Cc1ccc(O)cc1)C(=O)N[C@@H](CC(C)C)C(=O)O` [D^b 126]: binding on D^b of MHC class I was characterised by a dissociation constant (Kd) of 521 nM.

As to CMTWNQMNL [D^b 235], at D^b of MHC class I (setting [3]), the Kd is 715 nM.

On K^b of MHC class I, CNKRYFKL [K^b 330] had a Kd of 1730 nM.

GASAYGSL [K^b 45]: at K^b of MHC class I, the Kd was 26400 nM.

Take SLGEQQYSV [WH 187]: the affinity on HLA-A* 0201, expressed as Kd, was 7610 nM. The “surface markers of induced CTL (CD4, CD8)” value in the assay with induced CTL is “The CD4-positive cells and the CD8-positive cells were almost equal in the number”.

As to YSSDNLYQM [D^b 221], the Kd at D^b of MHC class I (setting [3]) is 1760 nM.

B1: D^b 221 peptide (peptide)
peptide: YSSDNLYQM
B1: the “log of binding dissociation constant (Kd)” value (“log” below) in assay [1] was -5.75 log.

B2: D^b 126 peptide (peptide)
peptide: RMFPNAPYL
notes: It was tested on both H-2D^b and HLA-A*0201
For B2, the “log” value in assay [1] is -6.28 log.

B3: K^b 45 peptide (peptide)
peptide: GASAYGSL
As for B3, the “log” value in assay [2] is -4.58 log.

B4: D^b 235 peptide (peptide)
peptide: CMTWNQMNL
Consider B4, for which the “log” value in assay [1] is -6.15 log.

B5: WH 187 peptide (peptide)
peptide: SLGEQQYSV
Turning to B5, the Kd with HLA-A* 0201, on T2 cells is 7610 nM.

B6: K^b 330 peptide (peptide)
peptide: CNKRYFKL
As to B6, in assay [2], the “log” value is -5.76 log.
